In PMC4701221, “Novel Promising Estrogenic Receptor Modulators: Cytotoxic and Estrogenic Activity of Benzanilides and Dithiobenzanilides” (PLoS ONE, 2016):
Residue numbers refer to the chain shown, from its start. Entries after “also recorded” stand apart in the source; their conditions may differ.

Tests used:
[1] = biological target: T1, ERα W383S (Homo sapiens, UniProt P03372, W383S); experiment: Estrogen Receptor luciferase assay in HEK293 cells transfected with ERα W383S; format: cell-based; conditions: HEK293, Fig 6A
T1 construct: expressed in transfected cells; host or cells: HEK293
T1 sequence (P03372 1-595 W383S): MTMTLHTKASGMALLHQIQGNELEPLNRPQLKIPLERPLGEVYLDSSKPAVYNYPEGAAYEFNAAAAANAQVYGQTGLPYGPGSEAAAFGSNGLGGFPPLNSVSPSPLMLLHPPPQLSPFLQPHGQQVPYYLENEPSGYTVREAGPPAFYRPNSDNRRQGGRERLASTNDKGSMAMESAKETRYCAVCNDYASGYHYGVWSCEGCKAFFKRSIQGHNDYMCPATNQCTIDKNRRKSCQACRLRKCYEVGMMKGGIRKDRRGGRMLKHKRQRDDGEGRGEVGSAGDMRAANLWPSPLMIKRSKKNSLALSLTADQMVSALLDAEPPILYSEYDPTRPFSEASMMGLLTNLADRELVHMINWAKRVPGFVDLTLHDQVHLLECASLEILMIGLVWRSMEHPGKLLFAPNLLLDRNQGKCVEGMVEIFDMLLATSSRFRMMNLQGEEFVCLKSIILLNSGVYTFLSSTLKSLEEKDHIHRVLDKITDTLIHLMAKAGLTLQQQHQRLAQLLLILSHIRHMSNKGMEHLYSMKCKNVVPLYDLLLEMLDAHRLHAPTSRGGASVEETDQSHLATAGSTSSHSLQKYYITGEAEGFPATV
Source text: To obtain a eukaryotic vector expressing only the ER-α nuclear receptor, a construct was designed by cloning a KpnI-BamHI fragment from plasmid pEGFP-C1-ERα containing the ERα coding sequence that includes a stop signal into the pEGFP-N3 plasmid (Clontech Laboratories, Palo Alto, CA) under the control of the CMV promoter. […] For mock transfections, pEGFP-N3 plasmid was digested with BglII and NotI and religated after polishing DNA ends to remove GFP coding sequence. Plasmid sequence was confirmed by automatic sequencing. Prior to transfection, cells were seeded in 48 well plates at density of 1.5 x 10^4 cells/well and incubated for 24 h to reach a cell confluence of 80–90%. […] MCF-7 cells, which endogenously express ERα receptor, were transfected with p3xERRE/ERE-luciferase plus the pRLTK Renilla luciferase control plasmid (95:5). Firefly and Renilla luciferase activities were measured using the Dual Luciferase Assay System (Promega, Madison, WI, USA), following a standard protocol using a Sirius L luminometer (Berthold Technologies, Bad Wildbad, Germany). Data were expressed as relative changes in luciferase activity and normalized to 100%.
Plasmids for the expression of the ERα W383A and ER-α W383S mutated receptors were constructed by the quick change site directed mutagenesis method using plasmid pEGFP-N-ERα as template.

[2] = biological target: T2, human ERα receptor (Homo sapiens, UniProt P03372); experiment: Estrogen Receptor luciferase assay in HEK293 cells transfected with ERα; format: cell-based; conditions: HEK293 transfected with ERα and luciferase reporter, compared with estradiol, Fig 3A/3B
T2 construct: host or cells: HEK293
T2 sequence (P03372 1-595): T1 sequence (P03372 1-595 W383S) with S383W
Source text: To obtain a eukaryotic vector expressing only the ER-α nuclear receptor, a construct was designed by cloning a KpnI-BamHI fragment from plasmid pEGFP-C1-ERα containing the ERα coding sequence that includes a stop signal into the pEGFP-N3 plasmid (Clontech Laboratories, Palo Alto, CA) under the control of the CMV promoter. This construction was termed pEGFP-N-ERα, and although it encoded both human ERα receptor and GFP protein, only the former is expressed. For mock transfections, pEGFP-N3 plasmid was digested with BglII and NotI and religated after polishing DNA ends to remove GFP coding sequence. Plasmid sequence was confirmed by automatic sequencing. Prior to transfection, cells were seeded in 48 well plates at density of 1.5 x 10^4 cells/well and incubated for 24 h to reach a cell confluence of 80–90%. […] MCF-7 cells, which endogenously express ERα receptor, were transfected with p3xERRE/ERE-luciferase plus the pRLTK Renilla luciferase control plasmid (95:5). Firefly and Renilla luciferase activities were measured using the Dual Luciferase Assay System (Promega, Madison, WI, USA), following a standard protocol using a Sirius L luminometer (Berthold Technologies, Bad Wildbad, Germany). Data were expressed as relative changes in luciferase activity and normalized to 100%.

Structure (SMILES): Fc1ccc(NC(=S)c2ccc(NC(=S)c3ccc(F)cc3)cc2)cc1 [Compound 18]
- Activation of ER dependent transcription, ERα W383S vs wild type [1]: less active
- ER dependent transcriptional activity [2]: capable to mediate ER dependent transcriptional activity in a similar mode than estradiol; also recorded: higher transcriptional activity at all assayed concentrations compared with estradiol
